In assay [1] the test system is NFκB pathway, CyclinD1. Nature of the assay: NFκB pathway activation and CyclinD1 expression in mammary epithelial cells after MPA. The class given is in vivo, mouse. The settings on record: three day MPA treatment. An excerpt: a, Activation of the NFκB pathway and CyclinD1 expression by MPA. Nulliparous RANK^Δmam and littermate control females were s.c. implanted with slow-release MPA pellets or treated with sham surgery. a, In situ immunostaining to detect phosphorylated (P) IκBα in mammary epithelial cells of RANK^Δmam and littermate control females after 3d MPA treatment. b, Western blot analysis of CyclinD1 and RANKL in isolated mammary epithelial cells from RANK^Δmam and littermate control females after 3d MPA treatment. Recombinant, murine sRANKL protein is shown for molecular size comparison. β-actin is shown as a loading control.
RANKL-RANK signaling via IKKα-NFκB-CyclinD1 in mammary epithelial cells is illustrated in FIG. 11a. […] To directly show whether RANK mediates NFκB-CyclinD1 activation downstream of progestins in vivo, mice were challenged with MPA. […] The Id2 pathway is a second genetically confirmed down-stream pathway for RANKL/RANK in mammary epithelial cells^17. To extend these findings to human, human SKBR3 breast tumor cells were assayed. […] To further test the effects of RANKL stimulation the ability of these cells to grow in an anchorage-independent manner was assessed, which correlates well with tumorigenicity in vivo^18.

The subject of assay [2] is primary mouse mammary gland epithelial cells (MECs). Briefly: Western blotting of RANKL/RANK downstream signaling in MECs. The class given is cell-based. The conditions noted are these: RANKL stimulation (1 μg/ml). Here is the method: a, Western blotting for phosphorylated (P) IKKα, total IKKα, phosphorylated (P) p65 NFκB, total p65 NFκB, phosphorylated (P) IκBα, and total IκBα in isolated primary mouse mammary gland epithelial cells (MECs) in response to RANKL stimulation (1 μg/ml). […] is shown as loading control. b, Western blotting for IKKα, IKKβ, IKKγ, phosphorylated (P) p65 NFκB, total p65 NFκB, phosphorylated (P) IκBα, and total IκBα in pooled late stage mammary adenocarconimas (n=4 for each lane) that developed in control, RANK^Δmam, and IKKα^Δmam females. β-actin is shown as loading control c, Expression of RANK, CyclinD1, and p21 mRNA in late stage mammary adenocacinomas that developed in control, RANK^Δmam, and IKKα^Δmam females. Expression was determined by qRT-PCR. Data are mean values+/−sem. n=4 per group. d, Soft-Agar Colony Formation Assay. Growth of human SKBR3 breast cancer cells in soft agar in response to stimulation with RANKL (1 μg/ml) or EGF (100 ng/ml). […] Apoptosis was detected by immunostaining for active Caspase 3. f, Apoptotic nuclei of epithelial cells (arrows) are shown for representative mammary gland sections. Magnifications ×40. g, Quantification of mammary epithelial apoptosis. A minimum of 5000 nuclei was counted for each mouse. […]
On the technique in general: A western blot detects proteins with antibodies after separation by electrophoresis.

Assay [3] relates to human SKBR3 breast cancer cells. Briefly: Western blotting of RANKL/RANK downstream signaling in SKBR3 cells. The class given is cell-based. The conditions noted are these: RANKL stimulation (1 μg/ml). Here is the method: a, Western blotting for phosphorylated (P) p65 NFκB, total p65 NFκB, phosphorylated (P) IκBα, total IκBα, phosphorylated (P) ERK1/2, total ERK1/2, phosphorylated (P) p38-MAPK, and p38-MAPK in human SKBR3 breast cancer cells in response to RANKL stimulation (1 μg/ml). Data are representative of 3 experiments. b, Growth curve of SKBR3 breast cancer cells cultured in normal growth medium (control, DMEM supplemented with 10% FCS) or in the presence of RANKL (1 μg/ml). Cell numbers were determined by counting live cells (trypan blue-exclusion) over 3 days. c, Onset of palpable mammary tumors in NFATc1^Δmam (n=10) and age matched littermate control (n=16) females treated with MPA pellets and DMBA. Data are shown as percentage of tumor free mice after the last DMBA challenge. No significant difference was found. d, Quantification of NFATc1 mRNA expression in purified mammary epithelial cells (MECs) and MPA-driven mammary tumors from NFATc1^Δmam and littermate control females. mRNA was determined by qRT-PCR. Data are shown as fold change compared to control (+/−sem). n=5 Per group. *P<0.05 (Student's t-test).
The human epithelial breast tumor cell line SKBR3 and primary non-transformed mouse mammary epithelial cells were left untreated or stimulated with recombinant murine RANKL^ref. 9. Adenocarcinomas were isolated from control and mutant mice and total protein lysates prepared. […]

As to `CC(=O)O[C@]1(C(C)=O)CC[C@H]2[C@@H]3C[C@H](C)C4=CC(=O)CC[C@]4(C)[C@H]3CC[C@@]21C` [MPA, medroxyprogesterone acetate], in assay [1] (RANK^Δmam female), the “nuclear phosphorylated IκBα and CyclinD1 protein expression” value is given as “severely reduced”. Further, in assay [1] (control females), the “CyclinD1 protein expression in mammary epithelial cells” value is reported as “induction of CyclinD1 protein expression” and the “nuclear phosphorylated IκBα in mammary epithelial cells” value is given as “nuclear accumulation of phosphorylated IκBα”.

B1: RANKL: Receptor Activator of NF-κB Ligand; recombinant murine RANKL used for stimulation (protein, UniProt O35235 139-316, looked up)
Tumor necrosis factor ligand …: FSGAPAMMEGSWLDVAQRGKPEAQPFAHLTINAASIPSGSHKVTLSSWYHDRGWAKISNMTLSNGKLRVNQDGFYYLYANICFRHHETSGSVPTDYLQLMVYVVKTSIKIPSSHNLMKGGSTKNWSGNSEFHFYSINVGGFFKLRAGEEISIQVSNPSLLDPDQDATYFGAFKVQDID
With B1, in assay [2], the “p65 NFκB and IκBα phosphorylation” value was “resulted in p65 NFκB and IκBα phosphorylation”; the “phosphorylation of p38-MAPKs and ERK” value was “triggered phosphorylation of p38-MAPKs and ERK”. In addition, the “NFκB, p38-MAPKs and ERK activation” value in assay [3] was “induced NFκB, p38-MAPKs and ERK activation”.

Source of the values: patent publication US20130316374A1, “BREAST CANCER DIAGNOSTICS” (IMBA - INSTITUT FUR MOLEKULARE BIOTECHNOLOGIE GMBH, priority 2010, published 2013).
